These results are taken from ChEMBL document CHEMBL1201862, “PubChem BioAssay data set” (2004).

Activity calls are given as the source filed them.

One experiment deals with T1, Cytochrome P450 1A2 (Homo sapiens, UniProt P05177).
T1 sequence (P05177 whole entry): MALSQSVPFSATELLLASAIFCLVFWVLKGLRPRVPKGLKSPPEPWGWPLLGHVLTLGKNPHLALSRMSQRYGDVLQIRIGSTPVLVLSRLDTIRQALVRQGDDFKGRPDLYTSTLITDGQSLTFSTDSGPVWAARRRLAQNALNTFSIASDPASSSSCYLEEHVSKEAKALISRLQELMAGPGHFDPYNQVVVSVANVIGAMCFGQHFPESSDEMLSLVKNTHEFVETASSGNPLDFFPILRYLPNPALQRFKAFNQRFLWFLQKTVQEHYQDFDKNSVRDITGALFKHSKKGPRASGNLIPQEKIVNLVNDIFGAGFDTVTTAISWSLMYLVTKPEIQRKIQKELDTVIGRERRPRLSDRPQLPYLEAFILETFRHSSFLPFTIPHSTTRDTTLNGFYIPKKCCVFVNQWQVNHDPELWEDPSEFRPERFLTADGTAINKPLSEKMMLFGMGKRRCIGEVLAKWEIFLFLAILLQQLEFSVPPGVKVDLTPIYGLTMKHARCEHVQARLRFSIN

In another experiment the test system is INS1. Put plainly: beta cell apoptosis inhibitors, cytokine rescue, dose response, luminescence, retest (AID 449756).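 Note: cell death triggered by IL-1 beta plus TNF-alpha plus IFN-gamma mixture; protective hits raise ATP signal compared with cytokine alone wells.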 Format: functional, cell-based. Conditions: Rattus norvegicus.
Experiment [1] deals with Luciferin 4-monooxygenase (Photinus pyralis, UniProt P08659). Put plainly: firefly luciferase enzyme inhibitors, dose response, biochemical, luminescence (AID 1891).
Experiment [2] can be described thus: Luminescence Cell-Based Dose Confirmation HTS to Identify Inhibitors of Platelet Dense Granule Release. [Related pubchem assays: 1663 (Primary HTS), 1678 (Summary of Project)]. Format: functional.
Experiment [3] can be described thus: Luminescence Cell-Based Dose Retest to Confirm Inhibitors of Cancer Stem Cells. [Related pubchem assays (depositor defined):AID2717, AID2721]. Format: functional. The conditions noted are these: Homo sapiens.
Experiment [4] in a line: inhibitors of intracellular T. cruzi replication, confirmation, NIH3T3 host cells, beta-gal luminescence (AID 2044).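 Note: intracellular parasites grown in NIH/3T3 mouse fibroblasts as host cells; luminescent beta-galactosidase reporter signal from transgenic T. cruzi replicating inside host cells; inhibitors lower the luminescence signal.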 Format: functional, cell-based.
A short description of experiment [5]: cytotoxicity toward NIH3T3 fibroblasts, dose response, counter-screen, cell-based, ATP luminescence, mouse fibroblasts (AID 2010).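 Note: cells exposed to compound for about 90 hours before reading.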 Format: functional. (In general: Counterscreens check selectivity or assay interference.)
Experiment [6] addresses T2, Rac GTPase-activating protein 1 (Homo sapiens, UniProt Q9H0H5).
T2 sequence (Q9H0H5 whole entry): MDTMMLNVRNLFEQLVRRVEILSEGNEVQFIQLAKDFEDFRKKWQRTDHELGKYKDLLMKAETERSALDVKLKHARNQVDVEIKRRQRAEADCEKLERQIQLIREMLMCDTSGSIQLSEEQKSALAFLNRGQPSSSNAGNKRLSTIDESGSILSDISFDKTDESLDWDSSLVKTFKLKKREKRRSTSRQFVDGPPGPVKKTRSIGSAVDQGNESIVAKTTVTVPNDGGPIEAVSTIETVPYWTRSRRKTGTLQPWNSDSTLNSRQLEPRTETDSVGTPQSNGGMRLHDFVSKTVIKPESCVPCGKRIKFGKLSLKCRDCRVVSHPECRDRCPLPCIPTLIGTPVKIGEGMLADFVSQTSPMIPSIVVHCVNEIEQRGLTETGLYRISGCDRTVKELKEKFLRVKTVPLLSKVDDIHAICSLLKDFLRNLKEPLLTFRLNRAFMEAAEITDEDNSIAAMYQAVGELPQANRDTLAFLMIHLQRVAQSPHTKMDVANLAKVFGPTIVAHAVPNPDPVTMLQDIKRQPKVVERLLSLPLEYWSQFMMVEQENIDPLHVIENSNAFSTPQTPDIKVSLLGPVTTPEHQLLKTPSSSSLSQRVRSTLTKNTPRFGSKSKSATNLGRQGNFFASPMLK
The experiment can be described thus: MgcRacGAP GTPase-activating activity inhibitors, confirmation, biochemical, ADP Hunter fluorescence, primary and confirmatory (AID 624330). The format is functional.

For another experiment, the target named is Cytochrome P450 2C19 (Homo sapiens, UniProt P33261). Put plainly: Cytochrome panel assay with activity outcomes. Panel member name: p450-cyp2c19 Compounds with AC50 equal or less than 10 uM are considered active. Format: functional. The conditions noted are these: read-out: AC50.
The target of the next experiment is Cytochrome P450 3A4 (Homo sapiens, UniProt P08684).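 Note: CYP3A4 tested as one member of a cytochrome P450 panel screen.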
Another experiment concerns the target Cytochrome P450 2C9 (Homo sapiens, UniProt P11712).
Experiment [7] in a line: HEp-2 cell cytotoxicity, dose response, cytotoxicity control for RSV inhibitor project, HTS (AID 2410). The format is functional. The conditions noted are these: human respiratory syncytial virus.
A short description of experiment [8]: Luminescence Cell-Based Dose Confirmation HTS to Identify Activators of 5'UTR Stem-Loop Driven Alpha-Synuclein mRNA Translation in H4 Neuroglioblastoma Cells. [Related pubchem assays: 1829 (Project Summary), 1814 (Primary HTS)]. The format is functional.
Experiment [9] is described as follows: Luminescence Cell-Based Dose Response HTS to Identify Activators of Luciferase Translation or Activity in H4 […] Cells. [Related pubchem assays: 1829 (Project Summary), 1814 (Primary HTS)]. The format is functional.
For another experiment, the system named is H4. The experiment can be described thus: Luminescence Cell-Based Dose Response HTS to Identify Activators of 5'UTR Stem-Loop Driven Prion Protein mRNA Translation in H4 Neuroglioblastoma Cells. [Related pubchem assays: 1829 (Project Summary), 1814 (Primary HTS)]. Format: functional. The conditions noted are these: Homo sapiens.

Sequence of Cytochrome P450 3A4 (P08684 whole entry): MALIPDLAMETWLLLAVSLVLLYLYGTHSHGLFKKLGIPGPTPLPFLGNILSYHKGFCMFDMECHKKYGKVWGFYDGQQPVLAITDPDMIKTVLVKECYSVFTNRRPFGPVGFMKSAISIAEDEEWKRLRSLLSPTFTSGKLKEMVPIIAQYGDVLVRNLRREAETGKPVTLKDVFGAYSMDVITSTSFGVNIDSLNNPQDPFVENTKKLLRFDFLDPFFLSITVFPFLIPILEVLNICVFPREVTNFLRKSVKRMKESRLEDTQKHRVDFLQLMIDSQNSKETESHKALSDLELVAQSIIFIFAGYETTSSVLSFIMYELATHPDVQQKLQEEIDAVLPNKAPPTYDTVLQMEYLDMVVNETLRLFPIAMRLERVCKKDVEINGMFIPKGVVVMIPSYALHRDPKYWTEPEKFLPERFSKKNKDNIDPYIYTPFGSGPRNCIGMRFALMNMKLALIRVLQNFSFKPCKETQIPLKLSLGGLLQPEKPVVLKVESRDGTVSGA
Sequence of Luciferin 4-monooxygenase (P08659 whole entry): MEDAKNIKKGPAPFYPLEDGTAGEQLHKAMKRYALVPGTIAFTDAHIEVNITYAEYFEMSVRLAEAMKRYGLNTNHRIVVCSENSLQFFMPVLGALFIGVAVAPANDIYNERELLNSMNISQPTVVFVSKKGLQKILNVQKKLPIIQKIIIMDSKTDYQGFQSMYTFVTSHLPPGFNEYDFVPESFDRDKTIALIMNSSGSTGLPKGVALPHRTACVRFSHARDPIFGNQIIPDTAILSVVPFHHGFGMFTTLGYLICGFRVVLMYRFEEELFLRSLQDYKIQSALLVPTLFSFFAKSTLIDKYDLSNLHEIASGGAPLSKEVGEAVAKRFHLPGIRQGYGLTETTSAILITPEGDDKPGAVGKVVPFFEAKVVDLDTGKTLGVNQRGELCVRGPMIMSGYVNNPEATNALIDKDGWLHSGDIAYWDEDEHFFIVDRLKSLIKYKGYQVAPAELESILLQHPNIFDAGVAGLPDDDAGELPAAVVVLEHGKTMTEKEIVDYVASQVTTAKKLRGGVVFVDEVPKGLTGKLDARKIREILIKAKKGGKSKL
Sequence of Cytochrome P450 2C19 (P33261 whole entry): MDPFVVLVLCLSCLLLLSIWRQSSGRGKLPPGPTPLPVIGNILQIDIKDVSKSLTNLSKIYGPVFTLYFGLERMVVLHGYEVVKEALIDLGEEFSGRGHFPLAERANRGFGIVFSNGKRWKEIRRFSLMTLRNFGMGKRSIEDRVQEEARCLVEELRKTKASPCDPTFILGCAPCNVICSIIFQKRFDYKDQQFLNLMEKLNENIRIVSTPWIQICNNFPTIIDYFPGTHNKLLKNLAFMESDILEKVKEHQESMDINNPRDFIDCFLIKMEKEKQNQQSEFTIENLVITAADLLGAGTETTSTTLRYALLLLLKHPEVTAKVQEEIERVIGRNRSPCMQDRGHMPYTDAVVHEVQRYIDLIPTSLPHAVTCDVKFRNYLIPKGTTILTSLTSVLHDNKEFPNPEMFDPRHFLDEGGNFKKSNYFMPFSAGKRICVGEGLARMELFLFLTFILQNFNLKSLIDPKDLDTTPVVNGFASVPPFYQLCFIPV
Sequence of Cytochrome P450 2C9 (P11712 whole entry): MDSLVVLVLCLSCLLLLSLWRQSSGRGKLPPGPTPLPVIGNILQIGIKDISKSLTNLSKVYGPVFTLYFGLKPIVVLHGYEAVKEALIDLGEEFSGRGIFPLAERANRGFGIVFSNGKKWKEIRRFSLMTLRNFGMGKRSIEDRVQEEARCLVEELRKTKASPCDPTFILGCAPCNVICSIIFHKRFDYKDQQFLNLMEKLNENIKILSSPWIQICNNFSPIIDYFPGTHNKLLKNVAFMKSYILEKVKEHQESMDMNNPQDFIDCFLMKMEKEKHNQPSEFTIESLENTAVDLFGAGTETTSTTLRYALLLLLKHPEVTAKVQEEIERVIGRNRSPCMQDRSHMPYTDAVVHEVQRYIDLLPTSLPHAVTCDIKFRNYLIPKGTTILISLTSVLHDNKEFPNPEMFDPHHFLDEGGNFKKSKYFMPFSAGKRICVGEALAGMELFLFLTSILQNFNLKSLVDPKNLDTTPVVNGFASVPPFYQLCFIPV

For orientation: AC50 means the midpoint of the concentration-response curve, whichever way the signal moves. For the molecule `Nc1nc(-c2ccc3ccccc3c2)cc(-c2cc(-c3ccc4ccccc4c3)nc(N)n2)n1`, the AC50 on Cytochrome P450 1A2 was 0.501 µM (inconclusive).
On to `O=C(Nc1cccnc1)C1(F)C(F)(F)C(F)(F)C(F)(F)C(F)(F)C1(F)F`, for which, in the experiment on INS1, the AC50 is 3.18 µM (active).
Usually EC50 stands for the concentration that produces a half-maximal response. `CC(C)[C@@H](CO)NC(=O)c1ccc2c3n(nc2c1)-c1ccccc1CO3`: the EC50 was 6.1 µM (active) in experiment [1] and 2.69 µM (active) in [2].
With `O=C(CCCN1C(=O)/C(=C/c2ccccc2)SC1=S)NCCCn1ccnc1`, the concentration at half-maximal activity (AC50) in experiment [3] was 76.3 µM (active); in the experiment with INS1, 21.2 µM (active).
In the case of `O=C(NC(=S)Nc1ccc(N2CCCCC2)c(Cl)c1)c1ccc2c(c1)OCCO2`, in [3], the concentration at half-maximal activity (AC50) is 2.54 µM (active).
Turning to `O=C1c2ccccc2C(=O)c2c(NC3CCCCC3)ccc(Nc3ccc(S(=O)(=O)O)cc3)c21`, the AC50 at Cytochrome P450 1A2 is 1.26 µM (inconclusive).
One may read the IC50 as the concentration that inhibits the measured activity by half. `Cc1cc(OCCCCCN2CCCC2)ccc1Cl`: the EC50 is 1.23 µM (active) in experiment [4] and 19.2 µM (active) in experiment [5]. Moreover, the IC50 in [6] is 131 µM (active).
On to `O=C(Nc1ccccc1)/C(=C\c1ccc2c(c1)OCO2)NC(=O)c1ccco1`, for which the AC50 at Cytochrome P450 2C19 was 22.4 µM (inconclusive); at Cytochrome P450 1A2, 25.1 µM (inconclusive); on Cytochrome P450 3A4, 20 µM (inconclusive).
On to `O=C(CNCc1ccco1)Nc1cccc(S(=O)(=O)N2CCCCC2)c1`, for which the IC50 in [6] was 169 µM (active).
Take `c1cc(N2CCCC3(CCNCC3)C2)ccn1`: the figures for the AC50 on Cytochrome P450 2C19, at Cytochrome P450 3A4 and on Cytochrome P450 2C9 were 25.1 µM (inconclusive), 12.6 µM (inconclusive) and 25.1 µM (inconclusive), respectively.
For the molecule `CCO[C@H]1OC(C(=O)N2CCN(Cc3ccc4c(c3)OCO4)CC2)=C[C@@H](c2csc3ccccc23)[C@@H]1CCCO`, the AC50 in the experiment on INS1 was 6.83 µM (active).
As for `C[C@@H](C(=O)Nc1ccc2ccccc2c1)[C@@H]1C[C@@]1(C)[C@@H](N)c1ccccc1`, the AC50 on Cytochrome P450 2C9 is 25.1 µM (inconclusive).
For the molecule `O=C(Nc1ccc(Cl)cc1)OCc1cc(-c2ccccc2Cl)on1`, the EC50 in experiment [1] and in experiment [2] was > 112 µM (not active) in each case. Besides, the AC50 at Cytochrome P450 2C9 is 1.12 µM (inconclusive).
Turning to `Cc1ccc(OCCCC(=O)N2CCOCC2)cc1`, the AC50 at Cytochrome P450 1A2 was 25.1 µM (inconclusive); on Cytochrome P450 3A4, 25.1 µM (inconclusive); on Cytochrome P450 2C9, 39.8 µM (inconclusive).
`Cc1cc(O)nc2ccc(S(=O)(=O)NC3CCCCC3)cc12`: the 50% effective concentration (EC50) in [1] was > 112 µM (not active); in experiment [2], 3.55 µM (active).
On to `CSc1nc(C)c2c(n1)N(c1ccc(C(C)C)cc1)CC2`, for which the results for the AC50 at Cytochrome P450 2C19 and on Cytochrome P450 2C9 were 17.8 µM (inconclusive) and 11.2 µM (inconclusive), respectively.
Usually CC50 stands for the concentration that lowers cell viability or growth by half. As for `CNC[C@H](CC1CCCCC1)NC[C@H](CO)NCCc1cccc(C(F)(F)F)c1`, the 50% cytotoxic concentration (CC50) in experiment [7] is 12.5 µM (active). Moreover, the AC50 in [3] is 7.61 µM (active).
`O=C(Cn1cnc2c(cnn2-c2ccccc2)c1=O)OCc1ccccc1`: the concentration for a half-maximal effect (EC50) in experiment [1] and in experiment [2] was > 112 µM (not active) throughout.
With `CCOC(=O)c1c(-c2ccc(OC)cc2)csc1NC(=O)CCN1C(=O)c2ccccc2C1=O`, the results for the concentration at half-maximal activity (AC50) at Cytochrome P450 1A2 and at Cytochrome P450 3A4 were 12.6 µM (inconclusive) and 4.47 µM (inconclusive), respectively.
On to `COc1ccc(-c2nc3ccccc3c(=O)n2N)cc1`, for which the AC50 on Cytochrome P450 2C19 was 0.631 µM (inconclusive); at Cytochrome P450 2C9, 2.82 µM (inconclusive).
As to `CCCC/C=C/C(NC(=O)c1ccc(-c2ccccc2)cc1)c1ccccc1` (stereo not drawn), on Cytochrome P450 1A2, the AC50 is 15.8 µM (inconclusive).
Consider `CCOC(=O)c1c(C)oc2cc(Br)c(OC(=O)N3CCOCC3)cc12`, for which the EC50 in [1] and in [2] was > 112 µM (not active) each time.
Consider `CNC(=O)[C@H](C)[C@@H]1C[C@@]1(C)[C@@H](NC(=O)OCc1ccccc1)c1ccccc1`, for which, on Cytochrome P450 1A2, the AC50 is 20 µM (inconclusive).
Consider `Cc1ccc(CS(=O)(=O)Cc2ccc(C(=O)NCC3CCCO3)o2)cc1` (stereo not drawn), for which the AC50 at Cytochrome P450 2C19 is 31.6 µM (inconclusive); on Cytochrome P450 3A4 it was 15.8 µM (inconclusive); on Cytochrome P450 2C9 it was 39.8 µM (inconclusive).
`COC(=O)c1ccc(/C=C/c2nc(O)c3ccccc3n2)cc1`: the EC50 is 17.7 µM (active) in [1] and 7.02 µM (active) in experiment [2].
As for `O=C(NC(=S)Nc1cccc(Cl)c1N1CCCC1)c1ccc(-c2cccc([N+](=O)[O-])c2)o1`, the figures for the AC50 on Cytochrome P450 1A2 and on Cytochrome P450 2C9 were 25.1 µM (inconclusive) and 5.01 µM (inconclusive), respectively.
On to `Cc1ccccc1NCc1ccc([N+](=O)[O-])s1`, for which the half-maximal activity concentration (AC50) in experiment [3] was 11 µM (active).
Still for that read-out and setting: in the case of `CCOc1cc(S(=O)(=O)Nc2ccc(CC)cc2)ccc1Cl` it was 6.17 µM (active).
In the case of `COc1ccc(Cc2nnc(NC(=O)CSc3ccc(C)cc3)s2)cc1OC`, the results for the AC50 at Cytochrome P450 2C19 and at Cytochrome P450 2C9 were 0.891 µM (inconclusive) and 2.51 µM (inconclusive), respectively.
On to `O=C(CCSc1ccccc1)N1CCN(c2ccccc2)CC1`, for which the concentration for a half-maximal effect (EC50) in experiment [8] is > 120 µM (not active); in experiment [9], 15.5 µM (active); in the experiment with H4, 28.4 µM (active).
On to `O=C1NC(=O)C(=Cc2ccco2)C(=O)N1`, for which, in experiment [6], the IC50 is 141 µM (active).
For `COc1ccc2cc(C(=O)N/N=C/c3sc4ccccc4c3O)ccc2c1`, the AC50 was 1.61 µM (active) in experiment [3] and 3.02 µM (active) in the experiment with INS1.
For `C(=N\N1CCOCC1)/c1nc(-c2ccccc2)n2ccccc12`, the IC50 in experiment [6] was 22.3 µM (active).
As to `CCOC(=O)C(/C=N/c1ccc(C(O)(C(=O)OCC)C(F)(F)F)cc1C)=C(/O)OCC` (stereo not drawn), the AC50 in the experiment on INS1 was 6.01 µM (active).
For the molecule `CCNC(=O)[C@H]1O[C@@H](n2cnc3c(N)ncnc32)[C@H](O)[C@@H]1O` [NECA], the EC50 in experiment [2] was < 0.088 µM (active).
In the case of `O=c1oc(-c2ccc(O)c(O)c2)cc2cccc(O)c12` [THUNBERGINOL A], the IC50 in experiment [6] was 19.7 µM (active).
